Measured values from article PMC3541164, “Cytotoxic and potent CYP1 inhibitors from the marine algae Cymopolia barbata” (Organic and Medicinal Chemistry Letters, 2012).
“Also recorded” adds a separate entry of the source. Where two headings read alike, the source gives them in different places.

Legend:
CYP2C19 [1] = target: T1, CYP2C19 (Homo sapiens, UniProt P33261); assay: Fluorometric CYP inhibition assay, CEC dealkylation; format: in vitro ADME; settings: recombinant CYP2C19, CEC 25 μM
Description: (§2) The test compounds were evaluated for their ability to inhibit the catalytic activity of human CYP1 enzymes by means of high throughput fluorometric detection assays conducted in 96-well microtitre plates as described elsewhere [16, 17]. 7-Ethoxyresorufin (ERes) was used as a substrate for detecting activity of CYP1B1 and 7-ethoxy-3-cyanocoumarin (CEC) was used as a substrate for both CYP1A1 and CYP1A2. Further, the substrates, 3-[2-(NN-diethyl-N-methylamino)ethyl]-7-methoxy-4methylcoumarin (AMMC), 7-benzyloxy-4-trifluoromethylcoumarin (BFC), and CEC were used as substrates for CYP2D6, CYP3A4, and CYP2C19, respectively. The reactions were monitored fluorometrically at 37°C, using a Varian Cary Eclipse fluorescence spectrophotometer.
(§3) IC50 and Ki values were determined by fitting the data in Sigma Plot (version 10.0) and enzyme kinetics module, using nonlinear regression analysis. The apparent Ki values were determined on the basis of visual inspection of Eadie-Hofstee and various statistics to evaluate goodness of fit, such as the size of the sum of squares of residuals, Akaike information criterion, and standard error (Enzyme kinetics module, version 1.3). The data listed represent the average values from three different determinations.
(§4) Data are expressed as mean percentage of control enzyme activity for three independent experiments.

CYP2C19 [2] = target: T1, CYP2C19; settings: read-out: published IC50 CYP2C19; published value for known inhibitor; cited from earlier work
CYP2D6 [3] = target: T2, CYP2D6 (Homo sapiens, UniProt P10635); assay: biochemical
T2 sequence (P10635 whole entry): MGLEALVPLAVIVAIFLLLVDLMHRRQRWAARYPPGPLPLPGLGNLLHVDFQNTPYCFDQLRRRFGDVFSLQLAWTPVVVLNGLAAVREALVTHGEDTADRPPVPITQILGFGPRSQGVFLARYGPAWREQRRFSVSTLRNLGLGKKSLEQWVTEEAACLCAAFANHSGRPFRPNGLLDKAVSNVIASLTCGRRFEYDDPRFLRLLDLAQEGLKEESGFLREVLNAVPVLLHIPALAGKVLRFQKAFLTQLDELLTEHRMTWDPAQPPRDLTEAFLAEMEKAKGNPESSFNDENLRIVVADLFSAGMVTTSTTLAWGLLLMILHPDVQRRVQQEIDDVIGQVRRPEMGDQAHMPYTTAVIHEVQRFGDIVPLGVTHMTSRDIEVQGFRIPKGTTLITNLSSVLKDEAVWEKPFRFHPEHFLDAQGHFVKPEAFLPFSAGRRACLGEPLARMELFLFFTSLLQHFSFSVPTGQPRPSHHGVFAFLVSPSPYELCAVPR
Description: as §2, §3, §4

CYP3A4 = CYP3A4 (Homo sapiens, UniProt P08684); assay: Fluorometric CYP inhibition assay, BFC debenzylation; format: in vitro ADME
CYP3A4, sequence (P08684 whole entry): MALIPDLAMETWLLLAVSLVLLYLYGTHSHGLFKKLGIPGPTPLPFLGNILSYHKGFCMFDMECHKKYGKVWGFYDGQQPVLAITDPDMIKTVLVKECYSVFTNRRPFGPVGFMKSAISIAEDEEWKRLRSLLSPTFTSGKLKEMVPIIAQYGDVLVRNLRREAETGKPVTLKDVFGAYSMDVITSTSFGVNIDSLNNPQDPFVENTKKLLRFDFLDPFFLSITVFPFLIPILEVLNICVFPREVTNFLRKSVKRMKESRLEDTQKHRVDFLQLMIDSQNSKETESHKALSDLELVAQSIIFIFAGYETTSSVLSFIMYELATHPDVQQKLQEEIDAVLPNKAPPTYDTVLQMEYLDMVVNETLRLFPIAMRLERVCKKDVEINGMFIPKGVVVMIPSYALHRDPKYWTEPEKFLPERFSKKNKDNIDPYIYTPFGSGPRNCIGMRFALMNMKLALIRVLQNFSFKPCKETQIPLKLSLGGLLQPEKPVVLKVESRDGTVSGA
Description: as §2, §3, §4

CYP1B1 [4] = target: T3, CYP1B1 (Homo sapiens, UniProt Q16678); assay: Fluorometric CYP inhibition assay, ERes dealkylation; format: biochemical; settings: for nature of inhibition of CYP1B1 activity: Eadie-Hofstee analysis, reversible; for Ki: apparent Ki, ERes dealkylation
T3 sequence (Q16678 1-543): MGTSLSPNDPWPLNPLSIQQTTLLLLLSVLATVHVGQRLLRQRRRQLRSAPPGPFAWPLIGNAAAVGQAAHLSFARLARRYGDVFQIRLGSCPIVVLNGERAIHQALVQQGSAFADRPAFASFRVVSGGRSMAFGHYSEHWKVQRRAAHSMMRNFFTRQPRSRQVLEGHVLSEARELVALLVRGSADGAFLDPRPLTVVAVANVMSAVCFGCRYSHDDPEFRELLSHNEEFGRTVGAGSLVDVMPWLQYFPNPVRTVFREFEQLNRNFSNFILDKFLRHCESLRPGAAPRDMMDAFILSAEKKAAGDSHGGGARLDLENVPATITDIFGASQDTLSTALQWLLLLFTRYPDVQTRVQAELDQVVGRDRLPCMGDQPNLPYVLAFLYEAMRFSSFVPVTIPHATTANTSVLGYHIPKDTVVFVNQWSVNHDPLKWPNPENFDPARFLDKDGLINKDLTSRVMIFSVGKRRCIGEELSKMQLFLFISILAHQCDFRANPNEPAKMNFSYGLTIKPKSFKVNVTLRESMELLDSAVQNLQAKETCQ
Description: as §2, §3, §4

MCF-7 cells = assay: MTS cell viability assay, breast cancer cells; format: cell-based; settings: breast cancer cells, 24 h exposure, MTS
Description: (§5) Cells were maintained at 37°C with 5% CO2 in Corning 75 cm^2 culture flasks. Cells were exposed to a given isolate or known anticancer agent for 24 h. Following the appropriate treatments, cell viability was evaluated using an MTS assay according to the manufacturer’s instructions [14]. All assays were performed at least three times and were monitored spectrophotometrically at 590 nm [15]. Cell viability was recorded as percentage relative to vehicle solvent-treated control.

CCD18 Co cells = assay: MTS cell viability assay, normal colon cells; format: cell-based; settings: normal colon cell line, 24 h exposure, MTS; for IC50: Homo sapiens, CCD-18Co
Description: (§1) Cell lines (CCD18 Co, HepG2 and MCF-7) were maintained in ATCC-formulated Eagle’s Minimum Essential Medium and HT29 was maintained in McCoy’s 5a Modified Medium supplemented with 10% fotal bovine serum (Atlas; Fort Collins, CO, USA), 10 mM HEPES solution, 100 mM L-glutamine penicillin streptomycin solution, 3 g/L glucose, and 1.5 g/L of sodium bicarbonate. Cells were maintained at 37°C with 5% CO2 in Corning 75 cm^2 culture flasks. Cells were exposed to a given isolate or known anticancer agent for 24 h. Following the appropriate treatments, cell viability was evaluated using an MTS assay according to the manufacturer’s instructions. All assays were performed at least three times and were monitored spectrophotometrically at 590 nm. Cell viability was recorded as percentage relative to vehicle solvent-treated control.

CYP1A1 [5] = target: T4, CYP1A1 (Homo sapiens, UniProt P04798); assay: Fluorometric CYP inhibition assay, CEC dealkylation; format: biochemical; settings: for nature of inhibition of CYP1A1 activity: Eadie-Hofstee analysis, reversible; for Ki: apparent Ki, CEC dealkylation; for IC50: recombinant CYP1A1, CEC 0.5 μM
T4 sequence (P04798 1-512): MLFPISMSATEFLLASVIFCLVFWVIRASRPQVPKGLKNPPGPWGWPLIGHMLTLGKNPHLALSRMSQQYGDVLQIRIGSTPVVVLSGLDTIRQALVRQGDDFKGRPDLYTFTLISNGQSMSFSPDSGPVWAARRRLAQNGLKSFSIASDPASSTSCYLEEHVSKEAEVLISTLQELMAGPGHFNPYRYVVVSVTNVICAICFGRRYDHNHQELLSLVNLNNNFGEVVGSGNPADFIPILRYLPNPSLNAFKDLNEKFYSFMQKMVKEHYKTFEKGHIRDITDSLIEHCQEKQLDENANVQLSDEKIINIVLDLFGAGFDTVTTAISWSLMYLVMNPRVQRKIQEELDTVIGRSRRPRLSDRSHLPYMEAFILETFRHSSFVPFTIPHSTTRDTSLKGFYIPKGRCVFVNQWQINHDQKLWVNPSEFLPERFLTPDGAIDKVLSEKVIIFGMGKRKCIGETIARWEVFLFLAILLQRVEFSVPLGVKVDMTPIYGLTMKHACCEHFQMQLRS
Description: as §2, §3, §4

CYP1A2 = target: T5, CYP1A2 (Homo sapiens, UniProt P05177); assay: as above; format: biochemical; settings: for IC50: recombinant CYP1A2, CEC 5 μM
T5 sequence (P05177 1-516): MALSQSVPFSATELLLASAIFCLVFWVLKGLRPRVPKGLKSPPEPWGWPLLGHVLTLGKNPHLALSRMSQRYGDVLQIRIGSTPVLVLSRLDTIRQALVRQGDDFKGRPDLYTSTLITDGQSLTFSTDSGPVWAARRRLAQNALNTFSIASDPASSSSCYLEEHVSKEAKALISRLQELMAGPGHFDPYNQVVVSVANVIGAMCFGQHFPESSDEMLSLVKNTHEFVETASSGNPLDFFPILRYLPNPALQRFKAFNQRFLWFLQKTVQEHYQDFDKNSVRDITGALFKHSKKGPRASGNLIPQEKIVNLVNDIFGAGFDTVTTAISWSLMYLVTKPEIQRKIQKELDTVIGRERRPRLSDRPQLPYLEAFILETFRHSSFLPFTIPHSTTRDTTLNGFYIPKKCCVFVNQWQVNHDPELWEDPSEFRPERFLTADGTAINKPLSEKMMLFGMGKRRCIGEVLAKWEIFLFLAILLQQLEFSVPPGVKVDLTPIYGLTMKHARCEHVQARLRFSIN
Description: as §2, §3, §4

HepG2 cells = assay: MTS cell viability assay, liver cancer cells; format: cell-based; settings: liver cancer cells, 24 h exposure, MTS
Description: as §1

HT29 cells = assay: MTS cell viability assay, colon cancer cells; format: cell-based; settings: colon cancer cell line, 24 h exposure, MTS; for IC50: Homo sapiens, HT-29
Description: as §1

CYP1A1 [6] = target: T4, CYP1A1; settings: published value for known inhibitor; cited from earlier work
CYP1B1 [7] = target: T3, CYP1B1; settings: published value for known inhibitor; cited from earlier work
[8] = MTS cell viability assay, breast cancer cells; format: cell-based; settings: human, MCF-7 breast cancer cells; at 60 μM, MCF-7; read-out: impact on cell viability
Description: as §5

[9] = MTS cell viability assay, normal colon cells; format: cell-based; settings: human, CCD18 Co normal colon cells; at 60 μM, CCD18 Co; read-out: impact on cell viability
Description: as §1

CYP2D6 [10] = target: T2, CYP2D6; assay: in vitro; settings: recombinant CYP2D6
Description: as §2, §3, §4

[11] = MTS cell viability assay, liver cancer cells; format: cell-based; settings: human, HepG2 liver cancer cells; at 60 μM, HepG2; read-out: impact on cell viability
Description: as §1

[12] = MTS cell viability assay, colon cancer cells; format: cell-based; settings: human, HT29 colon cancer cells; at 60 μM, HT29; read-out: impact on cell viability
Description: as §1

CYP1A1 [13] = system: CYP1A1; design: method as in PMID 10188874; settings: MCF-7 breast cancer cells; cited from earlier work
[14] = recombinant CYP1B1, ERes 0.37 μM, read-out: IC50 CYP1B1

T1 sequence (P33261 whole entry): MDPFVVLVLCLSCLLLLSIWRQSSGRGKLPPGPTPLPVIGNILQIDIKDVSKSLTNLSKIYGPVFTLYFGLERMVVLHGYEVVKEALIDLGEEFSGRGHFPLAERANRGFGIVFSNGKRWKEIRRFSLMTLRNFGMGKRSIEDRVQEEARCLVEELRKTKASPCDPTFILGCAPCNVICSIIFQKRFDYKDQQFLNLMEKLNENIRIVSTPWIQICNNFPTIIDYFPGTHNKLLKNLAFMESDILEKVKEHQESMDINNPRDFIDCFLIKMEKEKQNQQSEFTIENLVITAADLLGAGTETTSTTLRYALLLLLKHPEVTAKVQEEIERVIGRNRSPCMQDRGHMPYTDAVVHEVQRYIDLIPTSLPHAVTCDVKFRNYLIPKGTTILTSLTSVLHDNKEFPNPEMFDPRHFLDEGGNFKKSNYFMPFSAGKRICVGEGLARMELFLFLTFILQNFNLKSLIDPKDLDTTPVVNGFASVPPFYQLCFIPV

| SMILES | IC50 (CYP2C19 [1]) | nature of inhibition of CYP1B1 activity (CYP1B1 [4]) | Ki (CYP1B1 [4]) | IC50 (CYP1B1 [4]; [14]) | IC50 cell viability MCF-7 (MCF-7 cells) | IC50 (CCD18 Co cells) | nature of inhibition of CYP1A1 activity (CYP1A1 [5]) | Ki (CYP1A1 [5]) | IC50 (CYP1A1 [5]) | IC50 cell viability HepG (HepG2 cells) | IC50 (HT29 cells) | further results |
| --- | --- | --- | --- | --- | --- | --- | --- | --- | --- | --- | --- | --- |
| CCC1(c2ccccc2)C(=O)NC(=O)N(Cc2ccccc2)C1=O (single isomer, unassigned; (-)) [(−)-N-3-Benzyl-phenobarbital, reference compound] | 0.3 ± 0.01 µM | – | – | – | – | – | – | – | – | – | – | IC50 (CYP2C19 [2]): 0.25 µM |
| C/C(=C\C(=O)c1cc(O)c(Br)cc1O)CCCC(C)(C)O [PBQ2, 7-hydroxycymopolone] | 0.12 ± 0.06 µM | partial noncompetitive inhibition | 0.0047 µM | 0.14 ± 0.04 µM | NI (no impact (<10% inhibition at 60 μM)) | 55.6 ± 3.28 µM | uncompetitive inhibition | 0.84 ± 0.07 µM | 0.93 ± 0.26 µM | NI (no impact (<10% inhibition at 60 μM)) | 19.8 ± 0.46 µM | IC50 (CYP2D6 [3]): 2.75 ± 0.96 µM; IC50 (CYP3A4; recombinant CYP3A4, BFC 50 μM, read-out: IC50 CYP3A4): 8.31 ± 4.67 µM; IC50 (CYP1A2): 10.6 ± 6.75 µM |
| O=c1[nH]cc(F)c(=O)[nH]1 [Fluorouracil, fluorouracil, reference compound] | – | – | – | – | – | 55.5 ± 3.71 µM | – | – | – | – | 23.5 ± 1.12 µM | – |
| CC(=O)N1CCN(c2ccc(OCC3COC(Cn4ccnc4)(c4ccc(Cl)cc4Cl)O3)cc2)CC1 (centres unmarked) [ketoconazole, reference compound] | – | – | – | 6.3 ± 1.7 µM | – | – | – | – | 0.04 ± 0.01 µM | – | – | IC50 (CYP1A1 [6]): < 10 µM; IC50 (CYP1B1 [7]): < 10 µM |
| CC(C)(O)CCCC1(C)CC(=O)c2cc(O)c(Br)cc2O1 (centres unmarked) [PBQ1, 7-Hydroxycymopochromanone] | – | uncompetitive inhibition | 0.26 ± 0.03 µM | – | NI (no impact (<10% inhibition at 60 μM)) | – | partial non competitive; also recorded: partial noncompetitive inhibition | 3.07 ± 0.69 µM | – | NI (no impact (<10% inhibition at 60 μM)) | – | IC50 (CYP3A4; human, recombinant enzyme): 5.07 ± 3.54 µM; IC50 (CYP1B1 [4]; human): 1.42 ± 0.14 µM; viability at 24 h, 60 µM [8]: < 10%; IC50 cell viability CCD18 Co (CCD18 Co cells): NI (no impact (<10% inhibition at 60 μM)); viability at 24 h, 60 µM [9]: < 10%; IC50 (CYP2D6 [10]): 1.03 ± 0.4 µM; nature of inhibition of CYP1A2 activity (CYP1A2; Eadie-Hofstee analysis, reversible): noncompetitive inhibition; Ki (CYP1A2; apparent Ki, CEC dealkylation): 9.16 ± 4.68 µM; IC50 (CYP1A2; human, probe 7-ethoxy-3-cyanocoumarin (CEC)): 9.75 ± 0.0365 µM; viability at 24 h, 60 µM [11]: < 10%; IC50 cell viability HT29 (HT29 cells): NI (no impact (<10% inhibition at 60 μM)); viability at 24 h, 60 µM [12]: < 10% |
| O=c1c(O)c(-c2ccccc2)oc2cc(O)cc(O)c12 [galangin] | – | – | – | – | – | – | – | – | – | – | – | nature of inhibition of DMBA-induced CYP1A1 (CYP1A1 [13]): noncompetitive, dose-dependent |
